Experimental data from PubChem BioAssay AID1332 (Southern Research Institute, 2008).
≈ marks a conversion by molar mass, not a printed value.

The compounds below were run on M. tuberculosis H37Rv growth inhibition (assay: Mycobacterium tuberculosis H37Rv growth inhibition, confirmatory dose response, cytotoxicity (AID 1332);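 also: bacteria incubated 7 days before adding Alamar blue readout reagent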).

In order of falling IC90:
1. CCN(CC)CCNc1ccc(CO)c2sc3ccccc3c(=O)c12  19.4 µg/mL (≈ 54.5 µM)
2. CNCCC=C1c2ccccc2C=Cc2ccccc21  17.1 µg/mL (≈ 65.3 µM)
3. CNCCC=C1c2ccccc2CCc2ccccc21  16.8 µg/mL (≈ 63.6 µM)
4. COc1cc(NC(C)CCCN)c2ncccc2c1 (stereo unspecified)  14.5 µg/mL (≈ 55.9 µM)
5. CC/C(=C(\c1ccccc1)c1ccc(OCCN(C)C)cc1)c1ccccc1  13.6 µg/mL (≈ 36.7 µM)
6. Nc1ccc(S(=O)(=O)Nc2ccnn2-c2ccccc2)cc1  12.8 µg/mL (≈ 40.7 µM)
7. Nc1ccc(S(=O)(=O)Nc2cnc3ccccc3n2)cc1  12.7 µg/mL (≈ 42.3 µM)
8. Nc1nc(=S)c2ncn([C@@H]3O[C@H](CO)[C@@H](O)[C@H]3O)c2[nH]1  11.9 µg/mL (≈ 39.7 µM)
9. CC[C@H]1OC(=O)[C@H](C)[C@@H](OC2C[C@@](C)(OC)[C@@H](O)[C@H](C)O2)[C@H](C)[C@@H](O[C@@H]2O[C@H](C)C[C@H](N(C)C)[C@H]2O)[C@](C)(O)C[C@@H](C)/C(=N\OCOCCOC)[C@H](C)[C@@H](O)[C@]1(C)O (stereo partly specified)  11.5 µg/mL (≈ 13.7 µM)
10. CC(C)COCC(CN(Cc1ccccc1)c1ccccc1)N1CCCC1 (stereo unspecified)  11.3 µg/mL (≈ 30.7 µM)
11. Cc1c(OCC(F)(F)F)ccnc1CS(=O)c1nc2ccccc2[nH]1 (stereo unspecified)  10.1 µg/mL (≈ 27.5 µM)
12. CN(C)CCCN1c2ccccc2CCc2ccc(Cl)cc21  9.56 µg/mL (≈ 30.4 µM)
13. CC(NCCC(c1ccccc1)c1ccccc1)c1ccccc1 (stereo unspecified)  8.02 µg/mL (≈ 25.4 µM)
14. C[n+]1cc2c3c(ccc2c2ccc4cc5c(cc4c21)OCO5)OCO3  7.62 µg/mL
15. CC(C)N1CCN(c2ccc(OC[C@H]3CO[C@](Cn4cncn4)(c4ccc(Cl)cc4Cl)O3)cc2)CC1  7.54 µg/mL (≈ 14.2 µM)
16. CN(C)CCCN1c2ccccc2Sc2ccc(Cl)cc21  7.45 µg/mL (≈ 23.4 µM)
17. CN(C)CCCN1c2ccccc2Sc2ccc(C(F)(F)F)cc21  7.29 µg/mL (≈ 20.7 µM)
18. CCCCC(CC)CN1CN(CC(CC)CCCC)CC(C)(N)C1 (stereo unspecified)  6.85 µg/mL (≈ 20.2 µM)
19. Fc1ccc(C(c2ccc(F)cc2)N2CCN(C/C=C/c3ccccc3)CC2)cc1  6.62 µg/mL (≈ 16.4 µM)
20. CCSc1ccc2c(c1)N(CCCN1CCN(C)CC1)c1ccccc1S2  6.34 µg/mL (≈ 15.9 µM)
21. Cc1cccc(C)c1NC(=O)CN1CCN(CCCC(c2ccc(F)cc2)c2ccc(F)cc2)CC1  5.27 µg/mL (≈ 10.7 µM)
22. CC(Cc1ccccc1)NCCC(c1ccccc1)c1ccccc1 (stereo unspecified)  4.55 µg/mL (≈ 13.8 µM)
23. Cc1cc(NS(=O)(=O)c2ccc(N)cc2)no1  4.34 µg/mL (≈ 17.1 µM)
24. CC[C@@]1([C@@H]2O[C@@H]([C@H]3O[C@@](O)(CO)[C@H](C)C[C@@H]3C)C[C@@H]2C)CC[C@H]([C@]2(C)CC[C@]3(C[C@H](O)[C@@H](C)[C@@H]([C@@H](C)[C@@H](OC)[C@H](C)C(=O)O)O3)O2)O1  4.12 µg/mL (≈ 6.15 µM)
25. CCn1cc(C(=O)O)c(=O)c2cc(F)c(N3CCNCC3)nc21  4.1 µg/mL (≈ 12.8 µM)
26. O=C1CN(/N=C/c2ccc([N+](=O)[O-])o2)C(=O)N1  3.92 µg/mL (≈ 16.5 µM)
27. COc1cc(NS(=O)(=O)c2ccc(N)cc2)ncn1  3.78 µg/mL (≈ 13.5 µM)
28. Fc1ccc(C(OCCN2CCN(CCCc3ccccc3)CC2)c2ccc(F)cc2)cc1  3.58 µg/mL (≈ 7.94 µM)
29. Clc1ccc(C(Cn2ccnc2)OCc2csc3c(Cl)cccc23)c(Cl)c1 (stereo unspecified)  3.41 µg/mL (≈ 7.8 µM)
30. CN1CCN(CCCN2c3ccccc3Sc3ccc(C(F)(F)F)cc32)CC1  2.77 µg/mL (≈ 6.8 µM)
31. CCC(C)[C@H]1O[C@]2(C=C[C@@H]1C)C[C@@H]1C[C@@H](C/C=C(\C)C(O[C@H]3C[C@H](OC)C(O[C@H]4C[C@H](OC)[C@@H](O)[C@H](C)O4)[C@H](C)O3)[C@@H](C)/C=C/C=C3\CO[C@@H]4[C@H](O)C(C)=C[C@@H](C(=O)O1)[C@]34O)O2 (stereo partly specified)  2.72 µg/mL (≈ 3.12 µM)
32. CS(=O)(=O)c1ccc([C@@H](O)[C@@H](CF)NC(=O)C(Cl)Cl)cc1  2.7 µg/mL (≈ 7.53 µM)
33. COc1cccc2c1C(=O)c1c(O)c3c(c(O)c1C2=O)C[C@@](O)(C(=O)CO)C[C@@H]3O[C@H]1C[C@H](N)[C@H](O)[C@H](C)O1  2.6 µg/mL (≈ 4.79 µM)
34. Cc1nnc(NS(=O)(=O)c2ccc(N)cc2)s1  2.6 µg/mL (≈ 9.61 µM)
35. Clc1ccc(CSC(Cn2ccnc2)c2ccc(Cl)cc2Cl)cc1 (stereo unspecified)  2.53 µg/mL (≈ 6.37 µM)
36. Clc1ccc(C(Cn2ccnc2)OCc2c(Cl)cccc2Cl)c(Cl)c1 (stereo unspecified)  2.51 µg/mL (≈ 6.04 µM)
37. CC(=O)N1CCN(c2ccc(OC[C@H]3CO[C@](Cn4ccnc4)(c4ccc(Cl)cc4Cl)O3)cc2)CC1  2.49 µg/mL (≈ 4.69 µM)
38. CCCCCCCCNC(C)C(O)c1ccc(SC(C)C)cc1 (stereo unspecified)  2.25 µg/mL (≈ 6.67 µM)
39. CN(CCCCCCCCCCN(C)C(=O)Oc1cccc([N+](C)(C)C)c1)C(=O)Oc1cccc([N+](C)(C)C)c1  2.19 µg/mL
40. COc1cc2cc3c4cc(OC)c(OC)cc4cc[n+]3c(C)c2cc1OC  2.13 µg/mL
41. C1CCC(C(CC2CCCCN2)C2CCCCC2)CC1 (stereo unspecified)  1.99 µg/mL (≈ 7.16 µM)
42. Clc1ccc(COC(Cn2ccnc2)c2ccc(Cl)cc2Cl)cc1 (stereo unspecified)  1.98 µg/mL (≈ 5.18 µM)
43. Clc1ccc(COC(Cn2ccnc2)c2ccc(Cl)cc2Cl)c(Cl)c1 (stereo unspecified)  1.82 µg/mL (≈ 4.38 µM)
44. Cc1cc(N)c2ccccc2[n+]1CCCCCCCCCC[n+]1c(C)cc(N)c2ccccc21  1.78 µg/mL
45. COc1ccc(C[C@H](N)C(=O)N[C@H]2[C@@H](O)[C@H](n3cnc4c(N(C)C)ncnc43)O[C@@H]2CO)cc1  1.75 µg/mL (≈ 3.71 µM)
46. C=C1C(=O)O[C@@H]2[C@H]3O[C@]3(C)CC/C=C(\C)CC[C@@H]12  1.43 µg/mL (≈ 5.76 µM)
47. Nc1ccc(S(=O)(=O)Nc2nccs2)cc1  1.3 µg/mL (≈ 5.08 µM)
48. CC[C@H](C)[C@H]1O[C@]2(CC[C@@H]1C)C[C@@H]1C[C@@H](C/C=C(\C)[C@@H](O[C@H]3C[C@H](OC)[C@@H](O[C@H]4C[C@H](OC)[C@@H](O)[C@H](C)O4)[C@H](C)O3)[C@@H](C)/C=C/C=C3\CO[C@@H]4[C@H](O)C(C)=C[C@@H](C(=O)O1)[C@]34O)O2  1.29 µg/mL (≈ 1.48 µM)
49. CN[C@@H]1[C@H](O[C@H]2[C@H](O[C@@H]3[C@@H](O)[C@H](O)[C@@H](N=C(N)N)[C@H](O)[C@H]3N=C(N)N)O[C@@H](C)[C@]2(O)C=O)O[C@@H](CO)[C@H](O)[C@H]1O  1.11 µg/mL (≈ 1.92 µM)
50. O=C(N[C@H](CO)[C@H](O)c1ccc([N+](=O)[O-])cc1)C(Cl)Cl  1.06 µg/mL (≈ 3.29 µM)
51. CN[C@@H]1[C@@H](O)[C@@H](O[C@@H]2[C@@H](O)[C@H](O[C@H]3O[C@H]([C@@H](C)N)CC[C@H]3N)[C@@H](N)C[C@H]2N)OC[C@]1(C)O  0.859 µg/mL (≈ 1.85 µM)
52. CNc1ncnc2c1ncn2[C@@H]1O[C@H](CO)[C@@H](O)[C@H]1O  0.822 µg/mL (≈ 2.92 µM)
53. CCCCC(CC)CN=C(N)NC(N)=NCCCCCCN=C(N)NC(N)=NCC(CC)CCCC (stereo unspecified)  0.729 µg/mL (≈ 1.43 µM)
54. CN(C)/N=N/c1nc[nH]c1C(N)=O  0.639 µg/mL (≈ 3.51 µM)
55. C=C(NC(=O)C(=C)NC(=O)c1csc(C2=N[C@H]3c4csc(n4)[C@H]4NC(=O)c5csc(n5)[C@H]([C@@](C)(O)[C@@H](C)O)NC(=O)[C@H]5CSC(=N5)/C(=C\C)NC(=O)[C@H]([C@@H](C)O)NC(=O)c5csc(n5)[C@]3(CC2)NC(=O)[C@H](C)NC(=O)C(=C)NC(=O)[C@H](C)NC(=O)[C@H](C(C)CC)N[C@@H]2C=Cc3c([C@H](C)O)cc(nc3[C@H]2O)C(=O)O[C@@H]4C)n1)C(N)=O (stereo partly specified)  0.357 µg/mL (≈ 0.214 µM)
56. CC[C@H](CO)NCCN[C@H](CC)CO  0.191 µg/mL (≈ 0.935 µM)
57. COc1cccc2c1C(=O)c1c(O)c3c(c(O)c1C2=O)C[C@@](O)(C(C)=O)C[C@@H]3O[C@H]1C[C@H](N)[C@H](O)[C@H](C)O1  0.169 µg/mL (≈ 0.32 µM)
58. CC1COc2c(N3CCN(C)CC3)c(F)cc3c(=O)c(C(=O)O)cn1c23 (stereo unspecified)  0.067 µg/mL (≈ 0.185 µM)
59. O=C(O)c1cn(C2CC2)c2cc(N3CCNCC3)c(F)cc2c1=O  0.042 µg/mL (≈ 0.127 µM)
60. CCC(C)N1CCC2(CC1)N=c1c(c3c4c5c(C)c(O)c3c(O)c1=NC(=O)/C(C)=C/C=C/[C@H](C)[C@H](O)[C@@H](C)[C@@H](O)[C@@H](C)[C@H](OC(C)=O)[C@H](C)[C@@H](OC)/C=C/O[C@@](C)(O5)C4=O)N2 (stereo partly specified)  0.04 µg/mL (≈ 0.0472 µM)
61. CO[C@H]1/C=C/O[C@@]2(C)Oc3c(C)c(O)c4c(O)c(c(/C=N/N5CCN(C)CC5)c(O)c4c3C2=O)NC(=O)/C(C)=C\C=C\[C@H](C)[C@H](O)[C@@H](C)[C@@H](O)[C@@H](C)[C@H](OC(C)=O)[C@@H]1C  0.04 µg/mL (≈ 0.0486 µM)
